Measured values reported in patent US10077268B2, “FXR agonists and methods for making and using” (Salk Institute for Biological Studies, priority 2014, dated 2018).
Like-named read-outs stand apart in the source and are kept apart here.

Assays:
FXR-null mice = assay: HFD-fed FXR-null mice; type: in vivo; conditions: 100 mg/kg 5 weeks
Method: Data represent the mean±SD. Statistical analysis was performed with the Student's t test. *p<0.05, **p<0.01.

[1] = system: FXR target gene expression; assay: FXR target gene expression (qPCR) after acute PO or IP treatment; type: in vivo, C57BL/6J mice; conditions: for FXR target genes (IBABP, OSTα, FGF15) in liver or kidney / FXR target genes (IBABP, OSTα, FGF15) in the intestine: PO
Method: FIGS. 1A-1C are a comparative expression chart and two bar charts, respectively, illustrating increased levels of FXR target gene expression in the intestine relative to expression in the liver and kidney. 8 week-old C57BL/6J mice were treated with vehicle or fexaramine (100 mg/kg) via oral (PO) or intraperitoneal (IP) injection for three days (FIGS. 1A-1B) or five days (FIG. 1C).
FXR target gene expression was analyzed by qPCR. Gene expression was normalized against a vehicle-treated group.
FIG. 1F is a bar chart illustrating that orally delivered fexaramine is intestinally-restricted. Mice received vehicle or Fexaramine (100 mg/kg) via per os (PO) or intraperitoneal (IP) injection for 5 days. Expression of the FXR target gene SHP after PO or IP injection in selected tissues is shown.
(§1) Upon exploration of the in vivo effects of fexaramine (Fex) administration, it was discovered that due to ineffectual absorption, oral (PO) and intraperitoneal (IP) drug delivery produced very different effects (FIGS. 1D and 1E).

DIO mice = assay: Hyperinsulinemic-euglycemic clamp in DIO mice; type: in vivo
Method: FIGS. 15I-15K are a line graph and two bar graphs showing the effect of fexaramine treatment on body weight, insulin-stimulated GDR, and fasting insulin levels. Mice were fed HFD for 14 weeks, and then administered daily oral injections of vehicle or fexaramine (100 mg/kg) for 3 weeks with HFD. The mice treated with fexaramine were initially heavier (by 2-3 grams). Three weeks after treatment, a clamp study was performed on the mice. Data represent the mean±STD. Statistical analysis was performed with the Student's t test (*p<0.05, **p<0.01).

human TGR5 = target: T1, human TGR5 (Homo sapiens, UniProt Q8TDU6); assay: cAMP-response element luciferase reporter in HEK293 cells transfected with human TGR5; type: cell-based
T1 construct: expressed in transfected cells; host or cells: HEK293
T1 sequence (Q8TDU6 1-330): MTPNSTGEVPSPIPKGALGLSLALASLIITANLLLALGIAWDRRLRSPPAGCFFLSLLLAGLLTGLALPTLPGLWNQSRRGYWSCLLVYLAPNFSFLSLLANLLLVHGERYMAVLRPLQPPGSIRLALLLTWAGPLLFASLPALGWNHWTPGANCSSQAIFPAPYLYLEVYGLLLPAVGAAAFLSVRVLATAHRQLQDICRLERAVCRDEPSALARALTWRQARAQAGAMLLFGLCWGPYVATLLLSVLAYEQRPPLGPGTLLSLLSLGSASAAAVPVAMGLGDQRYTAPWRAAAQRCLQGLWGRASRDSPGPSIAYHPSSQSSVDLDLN
Method: HEK293 cells were transfected with expression vectors for cAMP-response element luciferase, β-galactosidase and human TGR5. 24 hours after transfection, cells were treated with fexaramine or INT-777 (a TGR5 agonist).

[2] = LC/MS quantification of serum fexaramine after PO or IP; type: in vivo, mice
Method: FIG. 1D is a schematic diagram illustrating an experimental procedure used to evaluate fexaramine, where mice were treated with vehicle or fexaramine (100 mg/kg) via PO or IP injection, and LC/MS quantification of serum fexaramine was conducted five days later.
FIG. 1E is a bar chart illustrating serum fexaramine concentrations after administration as described in FIG. 1D. Data represent mean values±STD. Statistical analysis was performed with the Student's t test (*p<0.05, **p<0.01).
as §1

In the case of `COC(=O)/C=C/c1cccc(N(Cc2ccc(-c3ccc(N(C)C)cc3)cc2)C(=O)C2CCCCC2)c1` [fexaramine], the “Fex-induced changes in gene expression and improvements in metabolic homeostasis in FXR null mice” value (FXR-null mice) is reported as “abrogated”, the “FXR target gene expression in the liver and kidney after IP injection” value ([1]; IP, 100 mg/kg, five days) is reported as “increases FXR target gene expression in the liver and kidney” and the “induction of SHP in liver and kidney” value ([1]; PO versus IP, 100 mg/kg for five days) is reported as “only seen in liver and kidney after IP treatment”. The “FXR target genes (IBABP, OSTα, FGF15) in liver or kidney” value ([1]; 100 mg/kg) was “not in the liver or kidney”, the “FXR target genes (IBABP, OSTα, FGF15) in the intestine” value ([1]; 100 mg/kg) was “substantially enhances FXR target gene expression in the intestine” and the “FXR target genes (IBABP, OSTα, FGF15) in liver or kidney” value ([1]; 100 mg/kg, listed as Fex) was “failed to affect the expression of these genes in liver or kidney”. For the same compound, the “FXR target genes (IBABP, OSTα, FGF15) in the intestine” value ([1]; 100 mg/kg, listed as Fex) was “induced multiple FXR target genes in the intestine”, the “induction of FXR target gene SHP throughout the intestine” value ([1]; acute PO and IP, 100 mg/kg for five days) was “robust induction” and the “insulin-mediated suppression of HGP” value (DIO mice; compared to control DIO mice) was “marked increase”. The “basal HGP, GDR, IS-GDR, FFA suppression and fasting insulin levels” value (DIO mice; weight-matched cohorts) was “No differences”, the “activation of TGR5” value (human TGR5) was “fails to activate TGR5” and the “activation of TGR5” value (human TGR5; listed as Fex) was “does not activate”. For the same compound, the serum Fex level after PO compared to IP ([2]; acute PO vs IP, 100 mg/kg) was 10 % of IP levels and the “absorption after oral delivery” value ([2]; oral) was “poorly absorbed”.
